# Laboratory results published in patent US10201585B2, “Methods for treatment of atherosclerosis” (Stealth Peptides International, Inc., priority 2012, dated 2019).
# Values joined by “and” are separate entries in the source; they are usually repeats but may differ in a detail not shown here. Equal values may be shown once.
# Assays:
# [1] = test system: Apoprotein E deficient mice; assay: Plasma lipid analysis using an autoanalyzer (TC, Trigs, PL, FC, CE by calculation); format: in vivo; set-up: Plasma Trigs (triglycerides) / Trigs (plasma triglycerides): unit not given beside the values
# Text: (§1) Apoprotein E deficient mice (Jackson Laboratories, 600 Main Street, Bar Harbor, Me.) were used in this study. The mice were male, 7-8 weeks of age, and between 18-20 g in weight. An initial total cholesterol measurement was made on 30 mice, and the mice were grouped into two groups of 15 to match the total cholesterol measurements. Both groups were fed a “western diet” (40 kcal % butterfat, 0.15% [wt/wt] cholesterol, Harlan Teklad diet TD-88137). Starting at t=0, the control group of 15 mice received vehicle only (phosphate buffered saline at pH 7.4), while the test group of 15 mice received aromatic-cationic peptide reconstituted in phosphate buffered saline. Body weights of the mice were recorded weekly, and mortality checks were performed daily.
# (§2) The aromatic-cationic peptide D-Arg-2′6′-Dmt-Lys-Phe-NH2 (sterile lyophilized powder, reconstituted in phosphate buffered saline) was tested. For the 12-week study, test mice received a single, daily dose of the peptide, subcutaneously at 1 mg/kg. Control mice received a single daily dose of vehicle.
# Blood was collected every four weeks (orbital plexis) under isoflurane anesthesia (3%) and blood lipids were determined. Plasma lipid analysis was conducted for both groups at t=0, 4, 6, 8, and 12 weeks. Plasma lipid analysis using an autoanalyzer included total cholesterol (TC), triglycerides (Trigs), phospholipids (PL), free cholesterol (FC), and cholesterol ester (CE, by calculation). Gel electrophoresis was used to measure levels of high-density lipoprotein cholesterol (HDL-C), low-density lipoprotein cholesterol (LDL-C), and very low-density lipoprotein cholesterol (VLDL-C).
# [2] = test system: Apoprotein E deficient mice; assay: Thoracic aorta lipids (Bligh-Dyer extraction, WAKO kits; TC, FC, CE per mg protein); format: in vivo
# Text: as §1, §2
# Following the 12 week treatment, mice were euthanized within 48 hours after the last dose by CO2 asphyxiation and the vascular tree was perfused with 5 mL of phosphate buffered saline (pH 7.4). The aorta and aortic sinus were removed for examination. Thoracic aorta were isolated, trimmed of fat, and fixed in formalin for 48-72 hours before analysis. For en face analysis, aortas were laid out and pinned on black matrix for photography, and stained with Sudan IV. Vessels were imaged for surface involvement using a Nikon computerized image analysis system and the percent of the aortic surface area covered by lipid was calculated. Two determinations were done for each image (Quan 1 and Quan 2), and the average was computed. The data were then computed by group and statistically analyzed. Following staining and morphometric analysis, total lipids were extracted from the aortas using the Bligh-Dyer method. WAKO Diagnostics kits (WAKO Diagnostics, Inc., 1600 Bellwood Road Richmond, Va. 23237-1326) were then used to evaluate total cholesterol, free cholesterol, and cholesterol ester. Cholesterol levels were quantitate nad expressed relative to protein levels. Values are expressed as μg lipid per mg protein (see e.g., FIG. 1).
# [3] = Week 4, individual test mice (sample # 16-30), listed as aromatic-cationic peptide
# [4] = Week 8, individual test mice (sample # 16-30), listed as aromatic-cationic peptide
# [5] = Week 12, AVE of test mice 16-30
# [6] = Week 12, individual test mice (sample # 16-30), listed as aromatic-cationic peptide
# [7] = treated versus vehicle at 4, 8 and 12 week time points
# [8] = treated versus vehicle, 12 weeks (Table 8, FIG. 2)
# [9] = μg lipid per mg protein, peptide 1 mg/kg s.c. daily, 12 weeks, individual mouse (sample 16-30)
substance,measurement,setting,value
D-Arg-2′6′-Dmt-Lys-Phe-NH2,FC (plasma free cholesterol),"[1]; Week 4, AVE of test mice 16-30",387
same,PL (plasma phospholipid),"[1]; Week 4, AVE of test mice 16-30",514
same,TC (plasma total cholesterol),"[1]; Week 4, AVE of test mice 16-30",997
same,Trigs (plasma triglycerides),"[1]; Week 4, AVE of test mice 16-30",58
same,CE (plasma cholesterol ester),[1]; [3],491 and 580 and 622 and 731 and 626 and 417 and 574 and 660 and 515 and 536 and 630 and 761 and 581 and 732 and 701
same,FC (plasma free cholesterol),[1]; [3],308 and 344 and 354 (2×) and 408 and 412 and 256 and 366 and 386 and 320 and 286 and 396 and 462 and 516 and 636
same,PL (plasma phospholipid),[1]; [3],422 and 482 and 452 and 560 and 526 and 320 and 506 and 556 and 446 and 416 and 516 and 580 and 510 and 666 and 750
same,TC (plasma total cholesterol),[1]; [3],799 and 924 and 976 and 1139 and 1038 and 673 and 940 and 1046 and 835 and 822 and 1026 and 1223 and 935 and 1248 and 1337
same,Trigs (plasma triglycerides),[1]; [3],18 (2×) and 39 and 28 and 85 and 59 (2×) and 46 and 108 and 33 and 44 (2×) and 67 and 80 and 144
same,CE (plasma cholesterol ester),"[1]; Week 8, AVE of test mice 16-30",932
same,FC (plasma free cholesterol),"[1]; Week 8, AVE of test mice 16-30",350
same,PL (plasma phospholipid),"[1]; Week 8, AVE of test mice 16-30",493
same,TC (plasma total cholesterol),"[1]; Week 8, AVE of test mice 16-30",1282
same,Trigs (plasma triglycerides),"[1]; Week 8, AVE of test mice 16-30",57
same,CE (plasma cholesterol ester),[1]; [4],940 and 710 and 1119 and 865 and 1153 and 653 and 714 and 1085 and 715 and 670 and 1073 and 1048 and 839 and 1130 and 1267
same,FC (plasma free cholesterol),[1]; [4],322 and 294 (2×) and 386 and 318 and 392 and 290 and 388 and 308 (2×) and 286 and 362 and 366 and 404 and 530
same,PL (plasma phospholipid),[1]; [4],416 and 456 and 474 and 448 and 516 (2×) and 424 and 480 and 488 and 436 and 440 and 556 and 470 and 540 and 728
same,TC (plasma total cholesterol),[1]; [4],1262 and 1004 and 1505 and 1183 and 1545 and 943 and 1008 and 1473 and 1023 and 956 and 1435 and 1414 and 1147 and 1534 and 1797
same,Trigs (plasma triglycerides),[1]; [4],34 (3×) and 31 (2×) and 51 (2×) and 48 and 53 and 43 and 75 and 63 and 39 and 67 and 195
same,CE (plasma cholesterol ester),[1]; [5],681
same,FC (plasma free cholesterol),[1]; [5],322
same,PL (plasma phospholipid),[1]; [5],434
same,TC (plasma total cholesterol),[1]; [5],1003
same,Trigs (plasma triglycerides),[1]; [5],55
same,CE (plasma cholesterol ester),[1]; [6],607 and 335 and 597 and 640 and 1002 and 477 and 445 and 476 and 675 and 687 and 960 and 869 and 339 and 904 and 1201
same,FC (plasma free cholesterol),[1]; [6],291 and 205 and 287 and 296 and 418 and 242 and 229 and 269 and 315 and 312 and 419 and 386 and 219 and 413 and 535
same,PL (plasma phospholipid),[1]; [6],366 and 318 and 320 and 432 and 491 and 321 and 363 and 394 and 374 and 423 and 536 and 521 and 340 and 575 and 741
same,TC (plasma total cholesterol),[1]; [6],898 and 540 and 884 and 937 and 1420 and 719 and 674 and 745 and 990 and 999 and 1379 and 1255 and 558 and 1317 and 1736
same,Trigs (plasma triglycerides),[1]; [6],27 and 49 and 10 and 37 (2×) and 18 and 39 (2×) and 13 and 25 and 74 and 89 and 97 and 112 and 158
same,"Plasma cholesterol ester, in words",[1]; [7],reduces
same,"Plasma free cholesterol, in words",[1]; [7],reduces
same,"Plasma phospholipid levels, in words",[1]; [7],reduces
same,"Plasma total cholesterol, in words",[1]; [7],reduces
same,"Plasma triglycerides, in words",[1]; [7],reduces
same,"Thoracic aorta FC (free cholesterol), AVE","[2]; group mean of 15 test mice, 12 weeks, vehicle group 7.5",5.7 µg/mg
same,"Thoracic aorta CE (cholesterol ester), AVE","[2]; group mean of 15 test mice, 12 weeks, vehicle group 22.6",14.6 µg/mg
same,"Thoracic aorta TC (total cholesterol), AVE","[2]; group mean of 15 test mice, 12 weeks, vehicle group 30.1",20.4 µg/mg
same,"Cholesterol esters in the thoracic aorta, in words",[2]; [8],lower
same,"Free cholesterol in the thoracic aorta, in words",[2]; [8],lower
same,"Total cholesterol in the thoracic aorta, in words",[2]; [8],lower
same,Thoracic aorta CE (cholesterol ester),[2]; [9],13.8 μg/mg and 2.7 μg/mg and 30.3 μg/mg and 14.7 μg/mg and 30.7 μg/mg and 14.1 μg/mg and 4.6 μg/mg (2×) and 5.6 μg/mg (2×) and 28.5 μg/mg and 21.3 μg/mg and 18.6 μg/mg and 11.4 μg/mg and 13.0 μg/mg
same,Thoracic aorta FC (free cholesterol),[2]; [9],7.6 μg/mg (2×) and 4.0 μg/mg and 5.1 μg/mg and 3.0 μg/mg (2×) and 8.1 μg/mg and 2.7 μg/mg and 3.5 μg/mg and 14.6 μg/mg and 6.6 μg/mg and 3.8 μg/mg and 3.6 μg/mg and 3.3 μg/mg and 9.5 μg/mg
same,Thoracic aorta TC (total cholesterol),[2]; [9],21.4 µg/mg and 6.7 µg/mg and 35.4 µg/mg and 17.7 µg/mg and 38.8 µg/mg and 16.8 µg/mg and 8.1 µg/mg and 20.1 µg/mg and 35.1 µg/mg and 9.4 µg/mg and 24.9 µg/mg and 21.7 µg/mg and 7.9 µg/mg and 19.0 µg/mg and 22.5 µg/mg
